Data: patent US20120029187A1, “HALOALKYLSULFONANILIDE DERIVATIVE” (Nissan Chemical Industries, Ltd., priority 2009, published 2012)

Columns and labels:
Assay type in all cases: in vivo
[1] = tested on: ducksalad; assay: Test Example 2: herbicidal effects during the vegetation period under submerged conditions; conditions: treatment during the vegetation period under submerged conditions; dose 2.52 g/a
Procedure, shortened: (§1)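 Barnyardgrass, bulrush and ducksalad were co-sown in alluvial soil flooded to 4 cm and grown in a greenhouse at 25 to 30° C. At the 1- or 2-leaf stage, water-diluted emulsifiable concentrates went onto the water surface at set doses (g/a). Herbicidal effect was scored three weeks later on a graded scale.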

[2] = tested on: bulrush; assay: as above; conditions: treatment during the vegetation period under submerged conditions; dose 2.52 g/a
Procedure, shortened: as §1

[3] = tested on: barnyardgrass; assay: as above; conditions: treatment during the vegetation period under submerged conditions; dose 2.52 g/a
Procedure, shortened: as §1

[4] = tested on: transplanted rice; assay: Test Example 1: preemergence treatment under submerged conditions, effect on crop; conditions: dose 2.52 g/a
Procedure, shortened: (§2)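 Flooded-paddy preemergence assay; EC diluted with water, surface-applied at weed seeding; doses g/a; rice transplanted at 2.5 leaves; 0–5 mortality score after 3 weeks.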

[5] = tested on: ducksalad; assay: Test Example 1: herbicidal effects in preemergence treatment under submerged conditions; conditions: dose 2.52 g/a
Procedure, shortened: as §2

[6] = tested on: bulrush; assay: as above; conditions: dose 2.52 g/a
Procedure, shortened: as §2

[7] = tested on: barnyardgrass; assay: as above; conditions: dose 2.52 g/a
Procedure, shortened: as §2

[8] = tested on: wild oat; assay: Test Example 4: herbicidal effect in foliage treatment; conditions: dose 3.2 g/a
Procedure, shortened: (§3)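 Weeds and crops sown in sterilized diluvial soil under ~1.5 cm cover and grown in greenhouse at 25 to 30° C. At 14 days, water-diluted emulsifiable concentrate sprayed onto foliage at set doses (g/a); herbicidal effect scored on a rating scale three weeks after application.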

[9] = tested on: common chickweed; assay: as above; conditions: dose 3.2 g/a
Procedure, shortened: as §3

[10] = tested on: Italian ryegrass; assay: as above; conditions: dose 3.2 g/a
Procedure, shortened: as §3

[11] = tested on: common ragweed; assay: as above; conditions: dose 3.2 g/a
Procedure, shortened: as §3

[12] = tested on: beadstraw; assay: as above; conditions: dose 3.2 g/a
Procedure, shortened: as §3

[13] = tested on: large crabgrass; assay: as above; conditions: dose 3.2 g/a
Procedure, shortened: as §3

[14] = tested on: common lambsquater; assay: as above; conditions: dose 3.2 g/a
Procedure, shortened: as §3

[15] = tested on: velvetleaf; assay: as above; conditions: dose 3.2 g/a
Procedure, shortened: as §3

[16] = tested on: posumbu knotweed; assay: as above; conditions: dose 3.2 g/a
Procedure, shortened: as §3

[17] = tested on: water foxtail; assay: as above; conditions: dose 3.2 g/a
Procedure, shortened: as §3

[18] = tested on: giant foxtail; assay: as above; conditions: dose 3.2 g/a
Procedure, shortened: as §3

[19] = tested on: barnyardgrass; assay: as above; conditions: dose 3.2 g/a
Procedure, shortened: as §3

[20] = tested on: redroot pigweed; assay: as above; conditions: dose 3.2 g/a
Procedure, shortened: as §3

[21] = tested on: common chickweed; assay: Test Example 3: herbicidal effects in soil treatment; conditions: dose 3.2 g/a
Procedure, shortened: (§4)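 Seeds were sown in sterilized diluvial soil and covered with about 1.5 cm of soil. Compounds, formulated as emulsifiable concentrates and diluted with water, were sprayed evenly over the soil surface at set doses in g/a. Herbicidal effect was scored on a rating scale three weeks later.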

[22] = tested on: Italian ryegrass; assay: as above; conditions: dose 3.2 g/a
Procedure, shortened: as §4

[23] = tested on: common ragweed; assay: as above; conditions: dose 3.2 g/a
Procedure, shortened: as §4

[24] = tested on: large crabgrass; assay: as above; conditions: dose 3.2 g/a
Procedure, shortened: as §4

[25] = tested on: common lambsquater; assay: as above; conditions: dose 3.2 g/a
Procedure, shortened: as §4

[26] = tested on: posumbu knotweed; assay: as above; conditions: dose 3.2 g/a
Procedure, shortened: as §4

[27] = tested on: water foxtail; assay: as above; conditions: dose 3.2 g/a
Procedure, shortened: as §4

[28] = tested on: giant foxtail; assay: as above; conditions: dose 3.2 g/a
Procedure, shortened: as §4

[29] = tested on: barnyardgrass; assay: as above; conditions: dose 3.2 g/a
Procedure, shortened: as §4

[30] = tested on: redroot pigweed; assay: as above; conditions: dose 3.2 g/a
Procedure, shortened: as §4

[31] = tested on: velvetleaf; assay: as above; conditions: dose 3.2 g/a
Procedure, shortened: as §4

[32] = three weeks after the application

## CCOC(=O)N(c1ccccc1CN1COC(C)(C(F)(F)F)C(Br)C1=O)S(=O)(=O)C(F)(F)F (centres unmarked) [II-75]
[1]
  C: ducksalad, herbicidal effect (evaluation scale 0-5): 5 (mortality of 90% or above (nearly complete death))
[2]
  B: bulrush, herbicidal effect (evaluation scale 0-5): 5 (mortality of 90% or above (nearly complete death))
[3]
  A: barnyardgrass, herbicidal effect (evaluation scale 0-5): 5 (mortality of 90% or above (nearly complete death))
[4]
  a: transplanted rice, effect on crop (evaluation scale 0-5): 0 (mortality of less than 5% (almost ineffective))
[5]
  C: ducksalad, herbicidal effect (evaluation scale 0-5): 5 (mortality of 90% or above (nearly complete death))
[6]
  B: bulrush, herbicidal effect (evaluation scale 0-5): 5 (mortality of 90% or above (nearly complete death))
[7]
  A: barnyardgrass, herbicidal effect (evaluation scale 0-5): 5 (mortality of 90% or above (nearly complete death))
[8]; [32]
  F: wild oat, herbicidal effect: 0 (mortality of less than 5% (almost ineffective))
[9]; [32]
  N: common chickweed, herbicidal effect: 3 (mortality of at least 40% and less than 70%)
[10]; [32]
  H: Italian ryegrass, herbicidal effect: 3 (mortality of at least 40% and less than 70%)
[11]; [32]
  J: common ragweed, herbicidal effect: 0 (mortality of less than 5% (almost ineffective))
[12]; [32]
  O: beadstraw, herbicidal effect: 5 (mortality of 90% or above (nearly complete death))
[13]; [32]
  D: large crabgrass, herbicidal effect: 1 (mortality of at least 5% and less than 20%)
[14]; [32]
  L: common lambsquater, herbicidal effect: 4 (mortality of at least 70% and less than 90%)
[15]; [32]
  I: velvetleaf, herbicidal effect: 3 (mortality of at least 40% and less than 70%)
[16]; [32]
  M: posumbu knotweed, herbicidal effect: 1 (mortality of at least 5% and less than 20%)
[17]; [32]
  G: water foxtail, herbicidal effect: 2 (mortality of at least 20% and less than 40%)
[18]; [32]
  E: giant foxtail, herbicidal effect: 1 (mortality of at least 5% and less than 20%)
[19]; [32]
  A: barnyardgrass, herbicidal effect: 4 (mortality of at least 70% and less than 90%)
[20]; [32]
  K: redroot pigweed, herbicidal effect: 3 (mortality of at least 40% and less than 70%)

## CCOC(=O)N(c1ccccc1CN1COC(c2ccccc2)CC1=O)S(=O)(=O)C(F)(F)F (centres unmarked) [II-10]
[1]
  C: ducksalad, herbicidal effect (evaluation scale 0-5): 5 (mortality of 90% or above (nearly complete death))
[2]
  B: bulrush, herbicidal effect (evaluation scale 0-5): 5 (mortality of 90% or above (nearly complete death))
[3]
  A: barnyardgrass, herbicidal effect (evaluation scale 0-5): 4 (mortality of at least 70% and less than 90%)
[21]
  N: common chickweed, herbicidal effect (evaluation scale 0-5): 5 (mortality of 90% or above (nearly complete death))
[22]
  H: Italian ryegrass, herbicidal effect (evaluation scale 0-5): 2 (mortality of at least 20% and less than 40%)
[23]
  J: common ragweed, herbicidal effect (evaluation scale 0-5): 0 (mortality of less than 5% (almost ineffective))
[24]
  D: large crabgrass, herbicidal effect (evaluation scale 0-5): 4 (mortality of at least 70% and less than 90%)
[25]
  L: common lambsquater, herbicidal effect (evaluation scale 0-5): 3 (mortality of at least 40% and less than 70%)
[26]
  M: posumbu knotweed, herbicidal effect (evaluation scale 0-5): 0 (mortality of less than 5% (almost ineffective))
[27]
  G: water foxtail, herbicidal effect (evaluation scale 0-5): 5 (mortality of 90% or above (nearly complete death))
[28]
  E: giant foxtail, herbicidal effect (evaluation scale 0-5): 4 (mortality of at least 70% and less than 90%)
[29]
  A: barnyardgrass, herbicidal effect (evaluation scale 0-5): 4 (mortality of at least 70% and less than 90%)
[30]
  K: redroot pigweed, herbicidal effect (evaluation scale 0-5): 0 (mortality of less than 5% (almost ineffective))
[4]
  a: transplanted rice, effect on crop (evaluation scale 0-5): 0 (mortality of less than 5% (almost ineffective))
[5]
  C: ducksalad, herbicidal effect (evaluation scale 0-5): 5 (mortality of 90% or above (nearly complete death))
[6]
  B: bulrush, herbicidal effect (evaluation scale 0-5): 5 (mortality of 90% or above (nearly complete death))
[7]
  A: barnyardgrass, herbicidal effect (evaluation scale 0-5): 5 (mortality of 90% or above (nearly complete death))
[8]; three weeks after application
  F: wild oat, herbicidal effect: 0 (mortality of less than 5% (almost ineffective))
[9]; three weeks after application
  N: common chickweed, herbicidal effect: 4 (mortality of at least 70% and less than 90%)
[10]; three weeks after application
  H: Italian ryegrass, herbicidal effect: 1 (mortality of at least 5% and less than 20%)
[11]; three weeks after application
  J: common ragweed, herbicidal effect: 3 (mortality of at least 40% and less than 70%)
[12]; three weeks after application
  O: beadstraw, herbicidal effect: 3 (mortality of at least 40% and less than 70%)
[13]; three weeks after application
  D: large crabgrass, herbicidal effect: 0 (mortality of less than 5% (almost ineffective))
[14]; three weeks after application
  L: common lambsquater, herbicidal effect: 3 (mortality of at least 40% and less than 70%)
[15]; three weeks after application
  I: velvetleaf, herbicidal effect: 4 (mortality of at least 70% and less than 90%)
[16]; three weeks after application
  M: posumbu knotweed, herbicidal effect: 4 (mortality of at least 70% and less than 90%)
[17]; three weeks after application
  G: water foxtail, herbicidal effect: 4 (mortality of at least 70% and less than 90%)
[18]; three weeks after application
  E: giant foxtail, herbicidal effect: 3 (mortality of at least 40% and less than 70%)
[19]; three weeks after application
  A: barnyardgrass, herbicidal effect: 4 (mortality of at least 70% and less than 90%)
[20]; three weeks after application
  K: redroot pigweed, herbicidal effect: 0 (mortality of less than 5% (almost ineffective))

## COCC1(C)CC(=O)N(Cc2ccccc2NS(=O)(=O)C(F)(F)F)CO1 (centres unmarked) [II-54]
[1]
  C: ducksalad, herbicidal effect (evaluation scale 0-5): 5 (mortality of 90% or above (nearly complete death))
[2]
  B: bulrush, herbicidal effect (evaluation scale 0-5): 5 (mortality of 90% or above (nearly complete death))
[3]
  A: barnyardgrass, herbicidal effect (evaluation scale 0-5): 5 (mortality of 90% or above (nearly complete death))
[21]
  N: common chickweed, herbicidal effect (evaluation scale 0-5): 5 (mortality of 90% or above (nearly complete death))
[22]
  H: Italian ryegrass, herbicidal effect (evaluation scale 0-5): 5 (mortality of 90% or above (nearly complete death))
[23]
  J: common ragweed, herbicidal effect (evaluation scale 0-5): 4 (mortality of at least 70% and less than 90%)
[24]
  D: large crabgrass, herbicidal effect (evaluation scale 0-5): 5 (mortality of 90% or above (nearly complete death))
[25]
  L: common lambsquater, herbicidal effect (evaluation scale 0-5): 3 (mortality of at least 40% and less than 70%)
[31]
  I: velvetleaf, herbicidal effect (evaluation scale 0-5): 5 (mortality of 90% or above (nearly complete death))
[26]
  M: posumbu knotweed, herbicidal effect (evaluation scale 0-5): 5 (mortality of 90% or above (nearly complete death))
[27]
  G: water foxtail, herbicidal effect (evaluation scale 0-5): 5 (mortality of 90% or above (nearly complete death))
[28]
  E: giant foxtail, herbicidal effect (evaluation scale 0-5): 5 (mortality of 90% or above (nearly complete death))
[29]
  A: barnyardgrass, herbicidal effect (evaluation scale 0-5): 5 (mortality of 90% or above (nearly complete death))
[30]
  K: redroot pigweed, herbicidal effect (evaluation scale 0-5): 3 (mortality of at least 40% and less than 70%)
[4]
  a: transplanted rice, effect on crop (evaluation scale 0-5): 0 (mortality of less than 5% (almost ineffective))
[5]
  C: ducksalad, herbicidal effect (evaluation scale 0-5): 5 (mortality of 90% or above (nearly complete death))
[6]
  B: bulrush, herbicidal effect (evaluation scale 0-5): 5 (mortality of 90% or above (nearly complete death))
[7]
  A: barnyardgrass, herbicidal effect (evaluation scale 0-5): 5 (mortality of 90% or above (nearly complete death))
[9]; three weeks after application
  N: common chickweed, herbicidal effect: 4 (mortality of at least 70% and less than 90%)
[10]; three weeks after application
  H: Italian ryegrass, herbicidal effect: 5 (mortality of 90% or above (nearly complete death))
[11]; three weeks after application
  J: common ragweed, herbicidal effect: 4 (mortality of at least 70% and less than 90%)
[12]; three weeks after application
  O: beadstraw, herbicidal effect: 4 (mortality of at least 70% and less than 90%)
[13]; three weeks after application
  D: large crabgrass, herbicidal effect: 4 (mortality of at least 70% and less than 90%)
[14]; three weeks after application
  L: common lambsquater, herbicidal effect: 2 (mortality of at least 20% and less than 40%)
[15]; three weeks after application
  I: velvetleaf, herbicidal effect: 5 (mortality of 90% or above (nearly complete death))
[16]; three weeks after application
  M: posumbu knotweed, herbicidal effect: 2 (mortality of at least 20% and less than 40%)
[17]; three weeks after application
  G: water foxtail, herbicidal effect: 5 (mortality of 90% or above (nearly complete death))
[18]; three weeks after application
  E: giant foxtail, herbicidal effect: 5 (mortality of 90% or above (nearly complete death))
[19]; three weeks after application
  A: barnyardgrass, herbicidal effect: 5 (mortality of 90% or above (nearly complete death))
[20]; three weeks after application
  K: redroot pigweed, herbicidal effect: 1 (mortality of at least 5% and less than 20%)
